Laboratory results from patent US20090018111A1, “Novel Antimicrobial Medicament” (priority 2004, published 2009).
Read-outs that look alike come from different tables or passages of the source.

Experiments:
Experiment in all cases: Sensitivity test (agar dilution)
[1] = tested on: M. catarrhalis ATCC8176; type: cell-based, Moraxella catarrhalis; settings: Moraxella catarrhalis
In short: (§1)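 Water-dissolved compounds, alone or mixed, were incorporated into Mueller Hinton agar at twofold serial concentrations. Spot inoculation used about 5 μl of about 10^6 CFU/ml suspension.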

[2] = tested on: M. catarrhalis ATCC25238; type: cell-based, Moraxella catarrhalis; settings: Moraxella catarrhalis
In short: as §1

[3] = tested on: S. maltophilia IID1275; type: cell-based, Stenotrophomonas maltophilia; settings: Stenotrophomonas maltophilia
In short: as §1

[4] = tested on: E. aerogenes ATCC13048; type: cell-based, Enterobacter aerogenes; settings: Klebsiella aerogenes
In short: as §1

SMILES: C[C@H]1C=C(c2csc(SC3=C(C(=O)O)N4C(=O)[C@H]([C@@H](C)O)[C@H]4[C@H]3C)n2)CN1 [SM, (4R,5S,6S)-6-[(1R)-1-Hydroxyethyl]-4-methyl-3-({4-[(5S)-5-methyl-2,5-dihydro-1H-pyrrol-3-yl]-1,3-thiazol-2-yl}sulfanyl)-7-oxo-1-azabicyclo[3.2.0]hept-2-ene-2-carboxylic acid]
- MIC ([1]; ATCC8176, Concomitant (AZT:SM = 1:1), M. catarrhalis ATCC8176, read-out: MIC concomitant): ≤ 0.002 µg/mL
- MIC ([1]; ATCC8176, Concomitant (BIPM:SM = 1:1), M. catarrhalis ATCC8176, read-out: MIC concomitant): ≤ 0.002 µg/mL
- MIC ([1]; ATCC8176, Concomitant (CAZ:SM = 1:1), M. catarrhalis ATCC8176, read-out: MIC concomitant): ≤ 0.002 µg/mL
- MIC ([1]; ATCC8176, Concomitant (CPFX:SM = 1:1), M. catarrhalis ATCC8176, read-out: MIC concomitant): ≤ 0.002 µg/mL
- MIC ([1]; ATCC8176, Concomitant (DRPM:SM = 1:1), M. catarrhalis ATCC8176, read-out: MIC concomitant): ≤ 0.002 µg/mL
- MIC ([1]; ATCC8176, Concomitant (IPM:SM = 1:1), read-out: MIC): ≤ 0.002 µg/mL
- MIC ([1]; ATCC8176, Concomitant (MEPM:SM = 1:1), read-out: MIC): ≤ 0.016 µg/mL
- MIC ([1]; ATCC8176, Concomitant (MEPM:SM = 1:2), read-out: MIC): ≤ 0.031 µg/mL
- MIC ([1]; ATCC8176, Concomitant (MEPM:SM = 1:4), read-out: MIC): ≤ 0.063 µg/mL
- MIC ([1]; ATCC8176, Concomitant (PAPM:SM = 1:1), M. catarrhalis ATCC8176, read-out: MIC concomitant): ≤ 0.002 µg/mL
- MIC ([1]; ATCC8176, Concomitant (PIPC:SM = 1:1), M. catarrhalis ATCC8176, read-out: MIC concomitant): ≤ 0.002 µg/mL
- MIC ([1]; ATCC8176, Concomitant drug (MEPM:SM = 2:1), read-out: MIC): ≤ 0.008 µg/mL
- MIC ([1]; ATCC8176, drug alone, M. catarrhalis ATCC8176, read-out: MIC alone): ≤ 0.002 µg/mL
- MIC ([2]; ATCC25238, Concomitant (AZT:SM = 1:1), M. catarrhalis ATCC25238, read-out: MIC concomitant): ≤ 0.002 µg/mL
- MIC ([2]; ATCC25238, Concomitant (BIPM:SM = 1:1), M. catarrhalis ATCC25238, read-out: MIC concomitant): ≤ 0.002 µg/mL
- MIC ([2]; ATCC25238, Concomitant (CAZ:SM = 1:1), M. catarrhalis ATCC25238, read-out: MIC concomitant): ≤ 0.002 µg/mL
- MIC ([2]; ATCC25238, Concomitant (CPFX:SM = 1:1), M. catarrhalis ATCC25238, read-out: MIC concomitant): ≤ 0.002 µg/mL
- MIC ([2]; ATCC25238, Concomitant (DRPM:SM = 1:1), M. catarrhalis ATCC25238, read-out: MIC concomitant): ≤ 0.002 µg/mL
- MIC ([2]; ATCC25238, Concomitant (IPM:SM = 1:1), read-out: MIC): ≤ 0.002 µg/mL
- MIC ([2]; ATCC25238, Concomitant (MEPM:SM = 1:1), read-out: MIC): ≤ 0.016 µg/mL
- MIC ([2]; ATCC25238, Concomitant (MEPM:SM = 1:2), read-out: MIC): ≤ 0.031 µg/mL
- MIC ([2]; ATCC25238, Concomitant (MEPM:SM = 1:4), read-out: MIC): ≤ 0.063 µg/mL
- MIC ([2]; ATCC25238, Concomitant (PAPM:SM = 1:1), M. catarrhalis ATCC25238, read-out: MIC concomitant): ≤ 0.002 µg/mL
- MIC ([2]; ATCC25238, Concomitant (PIPC:SM = 1:1), M. catarrhalis ATCC25238, read-out: MIC concomitant): ≤ 0.002 µg/mL
- MIC ([2]; ATCC25238, Concomitant drug (MEPM:SM = 2:1), read-out: MIC): ≤ 0.008 µg/mL
- MIC ([2]; ATCC25238, drug alone, M. catarrhalis ATCC25238, read-out: MIC alone): ≤ 0.002 µg/mL
- MIC ([3]; IID1275, Concomitant (AZT:SM = 1:1), S. maltophilia IID1275, read-out: MIC concomitant): > 32 µg/mL
- MIC ([3]; IID1275, Concomitant (BIPM:SM = 1:1), S. maltophilia IID1275, read-out: MIC concomitant): > 32 µg/mL
- MIC ([3]; IID1275, Concomitant (CAZ:SM = 1:1), S. maltophilia IID1275, read-out: MIC concomitant): > 32 µg/mL
- MIC ([3]; IID1275, Concomitant (CPFX:SM = 1:1), S. maltophilia IID1275, read-out: MIC concomitant): 1 µg/mL
- MIC ([3]; IID1275, Concomitant (DRPM:SM = 1:1), S. maltophilia IID1275, read-out: MIC concomitant): > 32 µg/mL
- MIC ([3]; IID1275, Concomitant (IPM:SM = 1:1), read-out: MIC): > 32 µg/mL
- MIC ([3]; IID1275, Concomitant (MEPM:SM = 1:1), read-out: MIC): > 32 µg/mL
- MIC ([3]; IID1275, Concomitant (MEPM:SM = 1:2), read-out: MIC): > 64 µg/mL
- MIC ([3]; IID1275, Concomitant (MEPM:SM = 1:4), read-out: MIC): > 128 µg/mL
- MIC ([3]; IID1275, Concomitant (PAPM:SM = 1:1), S. maltophilia IID1275, read-out: MIC concomitant): > 32 µg/mL
- MIC ([3]; IID1275, Concomitant (PIPC:SM = 1:1), S. maltophilia IID1275, read-out: MIC concomitant): > 32 µg/mL
- MIC ([3]; IID1275, Concomitant drug (MEPM:SM = 2:1), read-out: MIC): > 16 µg/mL
- MIC ([3]; IID1275, drug alone, S. maltophilia IID1275, read-out: MIC alone): > 32 µg/mL
- MIC ([4]; ATCC13048, Concomitant (AZT:SM = 1:1), E. aerogenes ATCC13048, read-out: MIC concomitant): 8 µg/mL
- MIC ([4]; ATCC13048, Concomitant (BIPM:SM = 1:1), E. aerogenes ATCC13048, read-out: MIC concomitant): 0.063 µg/mL
- MIC ([4]; ATCC13048, Concomitant (CAZ:SM = 1:1), E. aerogenes ATCC13048, read-out: MIC concomitant): 8 µg/mL
- MIC ([4]; ATCC13048, Concomitant (CPFX:SM = 1:1), E. aerogenes ATCC13048, read-out: MIC concomitant): 0.031 µg/mL
- MIC ([4]; ATCC13048, Concomitant (DRPM:SM = 1:1), E. aerogenes ATCC13048, read-out: MIC concomitant): 0.031 µg/mL
- MIC ([4]; ATCC13048, Concomitant (IPM:SM = 1:1), read-out: MIC): 0.125 µg/mL
